Experimental data published in patent US12600725B2 (Memorial Sloan-Kettering Cancer Center, priority 2013, dated 2026).
“Also recorded” adds a separate entry of the source.

How the values were obtained:
PANC-1 cells = experiment: Apoptosis assessment (Annexin V / 7AAD); assay type: cell-based
Description: (§1) Annexin V Apoptosis with 7-AAD has been specifically designed for the identification of apoptotic and necrotic cells. Annexin V (or Annexin A5) is a member of the annexin family of intracellular proteins that binds to phosphatidylserine (PS) in a calcium-dependent manner. PS is normally only found on the intracellular leaflet of the plasma membrane in healthy cells, but during early apoptosis, membrane asymmetry is lost and PS translocates to the external leaflet. Fluorochrome-labeled Annexin V can then be used to specifically target and identify apoptotic cells. Annexin V binding alone cannot differentiate between apoptotic and necrotic cells. To help distinguish between the necrotic and apoptotic cells 7-amino-actinomycin D (7-AAD) is used. Early apoptotic cells will exclude 7-AAD, while late stage apoptotic cells will stain positively, due to the passage of these dyes into the nucleus where they bind to DNA. 7-AAD (7-amino-actinomycin D) has a high DNA binding constant and is efficiently excluded by intact cells. It is useful for DNA analysis and dead cell discrimination during flow cytometric analysis. When excited by 488 laser light, 7-AAD fluorescence is detected in the far red range of the spectrum (650 nm long-pass filter).
(§2) Cell cycle and apoptosis assessment. Cell cycle and apoptosis were assessed by flow cytometry after single staining with propidium iodide (PI, BD Pharmingen) or double staining with AnnexinV-FITC (BD Pharmingen) and 7AAD (BD Pharmingen), respectively. Specifically, for cell cycle analysis, cells were washed twice with cold PBS and fixed in 70% ethanol overnight at 4° C. Fixed cells were collected at 1800 rpm for 10 min and stained with PBS containing PI and DNase-free RNase A (Sigma-Aldrich) for 1 h at room temperature in the dark. DNA content was measured by BD LSRII flow cytometer and cell further analyzed using program of cell cycle analysis in FloJo (Ashland, OR). The chicken erythrocyte nuclei singlets (CEN, Biosure) were used as the reference. For apoptosis assessment, live cells were collected, washed twice with cold PBS, resuspended in Binding Buffer and stained with AnnexinV-FITC and 7AAD for 15 min at room temperature in the dark. Signals from FL1 and FL3 channels were collected by MACSQuant analyzer and further analyzed using FloJo. Early apoptosis was defined as AnnexinV+/7AAD−, and late apoptosis was observed as AnnexinV+/7AAD+.

NCI-N87 cells = experiment: Apoptosis assessment (Annexin V / 7AAD); assay type: cell-based
Description: as §1, §2

OE19 cells = experiment: Apoptosis assessment (Annexin V / 7AAD); assay type: cell-based
Description: as §1, §2

[1] = system: EGFR and its downstream signaling in HMEC cells; experiment: Western blot of EGFR and downstream signaling in normal cells; assay type: cell-based, human; details: 24 h
Description: For comparison, the agent was also tested in a normal cell line, human mammary epithelial cells (HMECs). […] Without wishing to be bound by any particular theory, it is believed that a Grp94 selective inhibitor may therefore have a better therapeutic index than a direct RTK modulator (i.e. TKI or antibody) because it will act on the RTK only in conditions of oncogenic overexpression (see EGFR in TNBC cell lines vs HMEC). […] Approximately half of cases of triple-negative breast cancer (TNBC) and inflammatory breast cancer (IBC) overexpress EGFR, nonetheless clinical trials testing EGFR inhibitors reported lack of or limited benefit (Masuda H. et al. Breast Cancer Res Treat. 2012 November; 136(2):331-45). Without wishing to be bound by any particular theory, it is believed that such ineffectiveness is due to a crosstalk between EGFR and c-Met or other RTKs, because strategies that knocked down EGFR either by siRNA or by mixtures of antibodies that induces robust degradation of EGFR, led to reduced viability of TNBC cells (Mueller et al., Breast Cancer Res. 2012 Jul. 12; 14(4):R^104; Ferraro et al., Proc Natl Acad Sci USA. 2013 Jan. 29; 110(5):1815-20. PMID:23319610). […] Protein concentrations were determined using BCA kit (Pierce) according to the manufacturer's instructions. […]

[2] = system: IGF-II secretion by differentiated C2C12 cells; experiment: C2C12 differentiation and IGF-II secretion assay; assay type: cell-based, mouse; details: 24 hrs treatment
Description: C2C12 differentiation and IGF-II secretion assay (Wanderling, S. et al. GRP94 is essential for mesoderm induction and muscle development because it regulates insulin-like growth factor secretion. Mol. Biol. Cell 18, 3764-75 (2007); Ostrovsky, O., Ahmed, N.T. & Argon, Y. The chaperone activity of GRP94 toward insulin-like growth factor II is necessary for the stress response to serum deprivation. Mol. Biol. Cell 20, 1855-64 (2009)). C2C12 cells were maintained and cultured in DMEM in the presence of 10% FBS and 1% penicillin/streptomycin (Culture medium). C2C12 is an immortal line of mouse skeletal myoblasts originally derived from satellite cells from the thigh muscle of a two month old female mouse donor. These cells differentiate well into myocytes under appropriate culture conditions. […] Secreted IGF-II was quantified by using IGF-II mouse ELISA kit (Abcam, AB100696) according to the manufacturer's instructions. […] The bound IGF-II was detected with a biotinylated anti-IGF-II antibody. After the sequential incubation with HRP conjugated streptavidin, TMB One-step substrate reagent and the Stop solution, the absorbance was measured at 450 nm. The secreted IGF-II was quantified against a standard curve generated with recombinant IGF-II provided by the kit.

## CC(C)NCCCn1c(Sc2cc(Cl)cc(Cl)c2)nc2c(N)ncnc21 [PU-WS13]
PANC-1 cells
  induction of apoptosis: substantial increase; also recorded: more potent at killing cells through apoptosis
NCI-N87 cells
  cells exhibiting markers of early- and late-stage apoptosis: substantial increase
OE19 cells
  cells exhibiting markers of early- and late-stage apoptosis: substantial increase
[1]
  effect on EGFR and its downstream signaling in normal cells: does not affect EGFR and its downstream signaling
[2]
  IGF-II secretion: inhibited IGF-II secretion
